Assay results from patent US10167262B2, “Herbicidal substituted 3-arylpyrazoles” (FMC CORPORATION, priority 2014, dated 2019).
Where two headings read alike, the source gives them in different places.

Tests used:
Assay in all cases: Test C pre-/postemergence greenhouse test, plant response rating 0-100
Assay type in all cases: in vivo
soybean (Glycine max) = settings: Glycine max; for plant injury at 62 g/ha: 62 g ai/ha; for plant injury at 125 g/ha: 125 g ai/ha; for plant injury at 250 g/ha: 250 g ai/ha
How it was run: (§1)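 Plants were scored visually against controls 13–15 days after treatment on a 0–100 scale, 100 meaning complete control. Test chemicals, formulated in surfactant-containing non-phytotoxic solvent, went preemergence onto seeds in loam–sand blend or postemergence onto 1- to 4-leaf plants (2–18 cm) grown in peat-based mix.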

[1] = test system: winter wheat (Triticum aestivum); settings: Triticum aestivum; for plant injury at 62 g/ha: 62 g ai/ha; for plant injury at 125 g/ha: 125 g ai/ha; for plant injury at 250 g/ha: 250 g ai/ha
How it was run: as §1

[2] = test system: lambsquarters (Chenopodium album); settings: Chenopodium album; for pest or weed control at 62 g/ha: 62 g ai/ha; for pest or weed control at 125 g/ha: 125 g ai/ha; for pest or weed control at 250 g/ha: 250 g ai/ha
How it was run: as §1

[3] = test system: Italian ryegrass (Lolium multiflorum); settings: Lolium multiflorum; for pest or weed control at 62 g/ha: 62 g ai/ha; for pest or weed control at 125 g/ha: 125 g ai/ha; for pest or weed control at 250 g/ha: 250 g ai/ha
How it was run: as §1

[4] = test system: velvetleaf (Abutilon theophrasti); settings: Abutilon theophrasti; for pest or weed control at 62 g/ha: 62 g ai/ha; for pest or weed control at 125 g/ha: 125 g ai/ha; for pest or weed control at 250 g/ha: 250 g ai/ha
How it was run: as §1

[5] = test system: yellow nutsedge (Cyperus esculentus); settings: Cyperus; for pest or weed control at 62 g/ha: 62 g ai/ha; for pest or weed control at 125 g/ha: 125 g ai/ha; for pest or weed control at 250 g/ha: 250 g ai/ha
How it was run: as §1

corn (Zea mays) = settings: Zea mays; for Corn plant response rating (crop injury, 0 = no effect, 100 = complete kill) at 250 g/ha: 250 g ai/ha
How it was run: as §1

[6] = test system: pigweed (Amaranthus retroflexus); settings: Amaranthus retroflexus; for pest or weed control at 62 g/ha: 62 g ai/ha; for pest or weed control at 125 g/ha: 125 g ai/ha; for pest or weed control at 250 g/ha: 250 g ai/ha
How it was run: as §1

[7] = test system: giant foxtail (Setaria faberii); settings: Setaria faberi; for pest or weed control at 62 g/ha: 62 g ai/ha; for pest or weed control at 125 g/ha: 125 g ai/ha; for pest or weed control at 250 g/ha: 250 g ai/ha
How it was run: as §1

[8] = test system: ragweed (common ragweed, Ambrosia elatior); settings: Ambrosia artemisiifolia; for pest or weed control at 62 g/ha: 62 g ai/ha; for pest or weed control at 250 g/ha: 250 g ai/ha
How it was run: as §1

[9] = test system: large (Lg) crabgrass (Digitaria sanguinalis); settings: Digitaria sanguinalis; for pest or weed control at 62 g/ha: 62 g ai/ha; for pest or weed control at 125 g/ha: 125 g ai/ha; for pest or weed control at 250 g/ha: 250 g ai/ha
How it was run: as §1

[10] = test system: blackgrass (Alopecurus myosuroides); settings: Alopecurus myosuroides; for pest or weed control at 62 g/ha: 62 g ai/ha; for pest or weed control at 125 g/ha: 125 g ai/ha; for pest or weed control at 250 g/ha: 250 g ai/ha
How it was run: as §1

[11] = test system: johnsongrass (Sorghum halepense); settings: Sorghum halepense; for pest or weed control at 62 g/ha: 62 g ai/ha; for pest or weed control at 125 g/ha: 125 g ai/ha; for pest or weed control at 250 g/ha: 250 g ai/ha
How it was run: as §1

[12] = post-emergence, Postemergence, read-out: Plant response rating (0 to 100), Soybean
[13] = post-emergence, Postemergence, scale 0 to 100
[14] = pre-emergence, Preemergence, read-out: Plant response rating, Soybean
[15] = pre-emergence, Preemergence, 500 g ai/ha
[16] = post-emergence, Postemergence, read-out: Plant response rating (0 to 100), Wheat
[17] = pre-emergence, Preemergence, read-out: Plant response rating, Wheat
[18] = post-emergence, Postemergence, read-out: Plant response rating (0 to 100), Lambsquarters
[19] = pre-emergence, Preemergence, read-out: Plant response rating, Lambsquarters
[20] = post-emergence, Postemergence, read-out: Plant response rating (0 to 100), Ryegrass, Italian
[21] = pre-emergence, Preemergence, read-out: Plant response rating, Ryegrass, Italian
[22] = post-emergence, Postemergence, read-out: Plant response rating (0 to 100), Velvetleaf
[23] = pre-emergence, Preemergence, read-out: Plant response rating, Velvetleaf
[24] = post-emergence, Postemergence, read-out: Plant response rating (0 to 100), Nutsedge, Yellow
[25] = pre-emergence, Preemergence, read-out: Plant response rating, Nutsedge, Yellow
[26] = post-emergence, Postemergence, read-out: Plant response rating (0 to 100), Pigweed
[27] = pre-emergence, Preemergence, read-out: Plant response rating, Pigweed
[28] = post-emergence, Postemergence, read-out: Plant response rating (0 to 100), Foxtail, Giant
[29] = pre-emergence, Preemergence, read-out: Plant response rating, Foxtail, Giant
[30] = post-emergence, Postemergence, read-out: Plant response rating (0 to 100), Crabgrass, Large
[31] = pre-emergence, Preemergence, read-out: Plant response rating, Crabgrass, Large
[32] = pre-emergence, Preemergence, read-out: Plant response rating, Blackgrass
[33] = post-emergence, Postemergence, read-out: Plant response rating (0 to 100), Johnsongrass
[34] = pre-emergence, Preemergence, read-out: Plant response rating, Johnsongrass

For `Clc1cc(Cl)cc(-c2n[nH]cc2C(=NN2CCCC2)c2ccccc2)c1` [Compound 30, N-[[3-(3,5-dichlorophenyl)-1H-pyrazol-4-yl]phenylmethylene]-1-pyrrolidinamine], the plant injury at 62 g/ha (soybean (Glycine max); [12]) was 0%, the plant injury at 125 g/ha (soybean (Glycine max); [12]) was 0% and the plant injury at 250 g/ha (soybean (Glycine max); [13]) was 0%. For the same molecule, the plant injury at 62 g/ha (soybean (Glycine max); [14]) was 0%, the plant injury at 125 g/ha (soybean (Glycine max); [14]) was 0% and the plant injury at 250 g/ha (soybean (Glycine max); pre-emergence, Preemergence) was 0%. The plant injury at 500 g/ha (soybean (Glycine max); [15]) was 0%, the plant injury at 62 g/ha [1, 16] was 0% and the plant injury at 125 g/ha [1, 16] was 0%. It also gave a plant injury at 250 g/ha [1, 13] of 0%, a plant injury at 62 g/ha [1, 17] of 0% and a plant injury at 125 g/ha [1, 17] of 0%. It also gave a plant injury at 250 g/ha ([1]; pre-emergence, Preemergence) of 0%, a pest or weed control at 62 g/ha [2, 18] of 60% and a pest or weed control at 125 g/ha [2, 18] of 80%. For the same molecule, the pest or weed control at 250 g/ha [2, 13] was 100%, the pest or weed control at 62 g/ha [2, 19] was 100% and the pest or weed control at 125 g/ha [2, 19] was 100%. The pest or weed control at 250 g/ha ([2]; pre-emergence, Preemergence) was 100%, the pest or weed control at 500 g/ha [2, 15] was 100% and the pest or weed control at 62 g/ha [3, 20] was 0%. The pest or weed control at 125 g/ha [3, 20] was 0%, the pest or weed control at 250 g/ha [3, 13] was 0% and the pest or weed control at 62 g/ha [3, 21] was 0%. For the same molecule, the pest or weed control at 125 g/ha [3, 21] was 0%, the pest or weed control at 250 g/ha ([3]; pre-emergence, Preemergence) was 0% and the pest or weed control at 500 g/ha [3, 15] was 0%. It also gave a pest or weed control at 62 g/ha [4, 22] of 85%, a pest or weed control at 125 g/ha [4, 22] of 85% and a pest or weed control at 250 g/ha [4, 13] of 98%. For the same molecule, the pest or weed control at 62 g/ha [4, 23] was 65%, the pest or weed control at 125 g/ha [4, 23] was 70% and the pest or weed control at 250 g/ha ([4]; pre-emergence, Preemergence) was 75%. For the same molecule, the pest or weed control at 500 g/ha [4, 15] was 100%, the pest or weed control at 62 g/ha [5, 24] was 0% and the pest or weed control at 125 g/ha [5, 24] was 0%. For the same molecule, the pest or weed control at 250 g/ha [5, 13] was 0%, the pest or weed control at 62 g/ha [5, 25] was 0% and the pest or weed control at 125 g/ha [5, 25] was 0%. For the same molecule, the pest or weed control at 250 g/ha ([5]; pre-emergence, Preemergence) was 0%, the pest or weed control at 500 g/ha [5, 15] was 0% and the plant injury at 31 g/ha (corn (Zea mays); post-emergence, Postemergence, 31 g ai/ha) was 0%. The plant injury at 62 g/ha (corn (Zea mays); post-emergence, Postemergence, 62 g ai/ha) was 0%, the plant injury at 125 g/ha (corn (Zea mays); post-emergence, Postemergence, 125 g ai/ha) was 0% and the Corn plant response rating (crop injury, 0 = no effect, 100 = complete kill) at 250 g/ha (corn (Zea mays); [13]) was 0%. It also gave a Corn plant response rating (crop injury, 0 = no effect, 100 = complete kill) at 62 g/ha (corn (Zea mays); pre-emergence, Preemergence, 62 g ai/ha) of 0%, a Corn plant response rating (crop injury, 0 = no effect, 100 = complete kill) at 125 g/ha (corn (Zea mays); pre-emergence, Preemergence, 125 g ai/ha) of 0% and a Corn plant response rating (crop injury, 0 = no effect, 100 = complete kill) at 250 g/ha (corn (Zea mays); pre-emergence, Preemergence) of 0%. It also gave a Corn plant response rating (crop injury, 0 = no effect, 100 = complete kill) at 500 g/ha (corn (Zea mays); [15]) of 0%, a pest or weed control at 62 g/ha [6, 26] of 100% and a pest or weed control at 125 g/ha [6, 26] of 100%. It also gave a pest or weed control at 250 g/ha [6, 13] of 100%, a pest or weed control at 62 g/ha [6, 27] of 60% and a pest or weed control at 125 g/ha [6, 27] of 98%. The pest or weed control at 250 g/ha ([6]; pre-emergence, Preemergence) was 100%, the pest or weed control at 500 g/ha [6, 15] was 100% and the pest or weed control at 31 g/ha ([7]; post-emergence, Postemergence, 31 g ai/ha, read-out: Plant response rating (0 to 100), Foxtail, Giant) was 0%. It also gave a pest or weed control at 62 g/ha [7, 28] of 0%, a pest or weed control at 125 g/ha [7, 28] of 0% and a pest or weed control at 250 g/ha [7, 13] of 0%. For the same molecule, the pest or weed control at 62 g/ha [7, 29] was 0%, the pest or weed control at 125 g/ha [7, 29] was 0% and the pest or weed control at 250 g/ha ([7]; pre-emergence, Preemergence) was 0%. It also gave a pest or weed control at 500 g/ha [7, 15] of 0%, a pest or weed control at 62 g/ha ([8]; post-emergence, Postemergence, read-out: Plant response rating (0 to 100), Ragweed) of 20% and a pest or weed control at 125 g/ha ([8]; post-emergence, Postemergence, 125 g ai/ha, read-out: Plant response rating (0 to 100), Ragweed) of 35%. It also gave a pest or weed control at 250 g/ha [8, 13] of 90%, a pest or weed control at 62 g/ha ([8]; pre-emergence, Preemergence, read-out: Plant response rating, Ragweed) of 50% and a pest or weed control at 250 g/ha ([8]; pre-emergence, Preemergence) of 75%. For the same molecule, the pest or weed control at 500 g/ha [8, 15] was 100%, the pest or weed control at 31 g/ha ([9]; post-emergence, Postemergence, 31 g ai/ha, read-out: Plant response rating (0 to 100), Crabgrass, Large) was 0% and the pest or weed control at 62 g/ha [9, 30] was 0%. For the same molecule, the pest or weed control at 125 g/ha [9, 30] was 0%, the pest or weed control at 250 g/ha [9, 13] was 0% and the pest or weed control at 62 g/ha [9, 31] was 0%. It also gave a pest or weed control at 125 g/ha [9, 31] of 0%, a pest or weed control at 250 g/ha ([9]; pre-emergence, Preemergence) of 0% and a pest or weed control at 500 g/ha [9, 15] of 0%. It also gave a pest or weed control at 31 g/ha ([10]; post-emergence, Postemergence, 31 g ai/ha, read-out: Plant response rating (0 to 100), Blackgrass) of 0%, a pest or weed control at 62 g/ha ([10]; post-emergence, Postemergence, read-out: Plant response rating (0 to 100), Blackgrass) of 0% and a pest or weed control at 125 g/ha ([10]; post-emergence, Postemergence, scale 0 to 100, read-out: Plant response rating, Blackgrass) of 0%. It also gave a pest or weed control at 250 g/ha [10, 13] of 0%, a pest or weed control at 62 g/ha [10, 32] of 0% and a pest or weed control at 125 g/ha [10, 32] of 0%. The pest or weed control at 250 g/ha ([10]; pre-emergence, Preemergence) was 0%, the pest or weed control at 500 g/ha [10, 15] was 0% and the pest or weed control at 62 g/ha [11, 33] was 0%. The pest or weed control at 125 g/ha [11, 33] was 0%, the pest or weed control at 250 g/ha [11, 13] was 0% and the pest or weed control at 62 g/ha [11, 34] was 0%. It also gave a pest or weed control at 125 g/ha [11, 34] of 0%, a pest or weed control at 250 g/ha ([11]; pre-emergence, Preemergence) of 0% and a pest or weed control at 500 g/ha [11, 15] of 0%.
